The values that follow come from ChEMBL document CHEMBL2046327, “Jomthonic acid , a modified amino acid from a soil-derived Streptomyces” (J Nat Prod, 2012).

Structures are written as SMILES. pIC50: −log10 of the molar value. Active and inactive are the calls of the source. No cut-off for these calls is given here. Where only a bound is given, the exact number is not on record here.

For assay [1], the system named is ST-13. Description: Induction of mouse ST-13 cell differentiation into mature adipocyte at 2 to 50 uM. Type of assay: functional, cell-based.
Assay [2] deals with MCF7. Description: Cytotoxicity against human MCF7 cells after 48 hrs by MTT assay. Type of assay: functional, cell-based. The conditions noted are these: MCF7, 48 h. (Formazan colour is commonly taken as a measure of viable cells.)
For assay [3], the system named is Escherichia coli. Briefly: Antimicrobial activity against Escherichia coli NIH-JC2 after 20 hrs by microplate reader. Type of assay: functional. The conditions noted are these: NIH-JC2, 20 h.
The test system of assay [4] is Candida albicans. Briefly: Antimicrobial activity against Candida albicans IFO1594 after 20 hrs by microplate reader. Type of assay: functional. The conditions noted are these: IFO1594, 20 h.
Assay [5] is described as follows: Induction of mouse ST-13 cell differentiation into mature adipocyte at 50 uM. Type of assay: functional.
Assay [6] has as its system Micrococcus luteus. Description: Antimicrobial activity against Micrococcus luteus ATCC 9343 after 20 hrs by microplate reader. Type of assay: functional. The conditions noted are these: ATCC 9343, 20 h.

For orientation: pIC50 means −log10 of the IC50, conventionally taken in molar units. Read a high pIC50 as a small IC50. One may read the MIC as the lowest concentration that inhibits growth of the organism. Low values mean greater potency, high ones weaker potency. For `C/C=C(C)/C=C/C(=O)N[C@H](C(=O)O[C@H](C)[C@@H](C)C(=O)O)[C@H](C)c1ccccc1` [JOMTHONIC ACID A], in assay [1], the result was Active. The same compound showed a pIC50 in assay [2] below 4.00. The MIC in assay [3], in assay [4] and in assay [6] was above 50 µg/mL each time. In assay [5], this compound registered an Activity of 80%.
